# Source: patent US9914730B2, “Azaquinazoline inhibitors of Atypical protein Kinase C” (Ignyta, Inc., priority 2012, dated 2018)
# Molecular target: T1, full-length human PKCι (Homo sapiens, UniProt P41743)
# T1 construct: Recombinant, full-length human PKCι expressed in Sf21 insect cells is also commercially available; purchased; host or cells: Sf21 insect cells
# T1 sequence (P41743 1-596): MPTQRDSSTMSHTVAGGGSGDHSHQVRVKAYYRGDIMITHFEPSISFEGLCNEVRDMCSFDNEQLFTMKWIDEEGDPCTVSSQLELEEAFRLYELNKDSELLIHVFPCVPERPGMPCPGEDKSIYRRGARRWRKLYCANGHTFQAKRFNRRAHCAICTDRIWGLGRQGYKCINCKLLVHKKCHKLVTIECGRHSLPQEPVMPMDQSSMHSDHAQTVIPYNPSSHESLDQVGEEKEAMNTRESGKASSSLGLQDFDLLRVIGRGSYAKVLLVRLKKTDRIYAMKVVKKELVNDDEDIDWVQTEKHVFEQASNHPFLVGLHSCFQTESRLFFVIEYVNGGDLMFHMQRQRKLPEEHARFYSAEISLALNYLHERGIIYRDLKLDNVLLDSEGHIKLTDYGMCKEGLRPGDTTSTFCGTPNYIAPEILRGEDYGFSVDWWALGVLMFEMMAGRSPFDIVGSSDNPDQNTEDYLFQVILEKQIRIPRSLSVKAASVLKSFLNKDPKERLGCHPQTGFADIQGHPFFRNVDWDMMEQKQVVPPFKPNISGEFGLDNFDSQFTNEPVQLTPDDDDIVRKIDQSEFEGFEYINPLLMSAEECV
# Assay: PKCι IC50 IMAP assay, full-length PKCι at 150 μM ATP
# Type: biochemical
# Settings: read-out: IC50 in IMAP assay against full length PKCi at 150 μM ATP
# Excerpt: Assays are based on the ability of PKCι to phosphorylate a commercially available peptide substrate in vitro. The peptide substrate is FAM-PKCε pseudopeptide derived peptide, and comprises the amino acid sequence 5FAM-[…]-NH2. Recombinant, full-length human PKCι expressed in Sf21 insect cells is also commercially available. Recombinant, kinase-domain human PKCι is expressed and purified in-house.
# The procedure below explains how dose response curves for inhibitors of PKCι are obtained. The screen described is for a 384 well format but the assay can be adapted to 1536 or other formats as required.
# Compounds to be tested are dissolved in 100% DMSO. Compounds are diluted as required to give a final concentration of 4% DMSO (v/v) in the assay. 1 μl is plated into 384 well black low-binding flat bottomed assay plates which are used immediately. Dilutions and additions of compound to assay plates are carried out using Matrix WellMate® and Matrix PlateMate® Plus liquid handling systems.
# On the day of the screen PKCι/substrate working solution, and ATP working solution, are prepared in buffer containing 20 mM tris-HCl pH7.5, 10 mM MgCl2, 0.01% Triton X100, 250 μM EGTA and 1 mM DTT. The final concentration of PKCι used varies depending on the batch of protein but is typically 15 pM. The final concentration of peptide substrate in the assay is 100 nM. ATP is used at a final concentration of 150 μM or 25 μM in the assays containing full-length or kinase-domain PKCι respectively, which corresponds to five times or equal to the KM^APP for ATP for each enzyme, respectively. The final buffer concentration in the assay is 18 mM tris-HCl pH7.5, 9 mM MgCl2, 0.009% Triton X100, 225 μM EGTA and 0.9 mM DTT. Relevant controls are included, namely no compound and no enzyme. 5 μl PKCι/substrate working solution at 30 pM and 200 nM, respectively, is added to the wells, followed by 4 μl ATP working solution at 375 μM or 62.5 μM for full-length or kinase-domain PKCι respectively, using a 16 channel Matrix pipette. The reaction is allowed to incubate for 60 minutes at room temperature, before the reaction is stopped and developed by the addition of 20 μl IMAP™ development reagent (Molecular Devices). IMAP development reagent consists of 0.25% (v/v) IMAP progressive binding reagent, 17% (v/v) IMAP progressive binding buffer A and 3% (v/v) IMAP progressive binding buffer B. The plates are then incubated for 2 hours at room temperature before being read using an appropriate plate reader, for example a Molecular Devices HT Analyst or a BMG Pherastar. Plates are read using a fluorescence polarisation protocol with excitation at 485 nm and emission at 530 nm, and dichroic mirror at 505 nm.
# Percentage inhibition values are calculated from fluorescence polarisation values, using the no compound and no enzyme control values as 0% and 100% inhibition, respectively. IC50 determination is performed with ExcelFit software (IDBS) using curve fit 205. Z′ factors are determined for each plate tested and are all above 0.5.
row,Compound,IC50 [nM]
1,"F[C@H]1C[C@@H](Nc2cc(-c3nc(N4CCNCC4)c4c(C5CC5)cncc4n3)ccn2)C1 [Example 703, (+/−)cis-[4-(5-Cyclopropyl-4-piperazin-1-yl-pyrido[3,4-d]pyrimidin-2-yl)-pyridin-2-yl]-(3-fluoro-cyclobutyl)-amine]",< 100
2,"N#CC[C@H]1CN(c2nc(N3CCOCC3)nc3cncc(C4CC4)c23)CCN1 [Example 1018, [(S)-4-(5-Cyclopropyl-2-morpholin-4-yl-pyrido[3,4-d]pyrimidin-4-yl)-piperazin-2-yl]-acetonitrile]",< 100
3,"CC(C)NC(=O)C1CCN(c2nc(-c3ccnc(Nc4c(F)cccc4F)c3)nc3cncc(C4CC4)c23)CC1 [Example 655, 1-{5-Cyclopropyl-2-[2-(2,6-difluoro-phenylamino)-pyridin-4-yl]-pyrido[3,4-d]pyrimidin-4-yl}-piperidine-4-carboxylic acid isopropylamide]",1000 to 10000
4,"COc1cncc2nc(-c3ccnc(Nc4ccc(N5CCOCC5)cc4C)c3)nc(N3CCNCC3)c12 [Example 383, [4-(5-Methoxy-4-piperazin-1-yl-pyrido[3,4-d]pyrimidin-2-yl)-pyridin-2-yl]-(2-methyl-4-morpholin-4-yl-phenyl)-amine]",< 100
5,"Fc1cccc(Nc2cc(-c3nc(N4CCNCC4)c4c(C5CC5)cncc4n3)ccn2)n1 [Example 483, [4-(5-Cyclopropyl-4-piperazin-1-yl-pyrido[3,4-d]pyrimidin-2-yl)-pyridin-2-yl]-(6-fluoro-pyridin-2-yl)-amine]",< 100
6,"{4-[5-Cyclopropyl- 4-((R)-3- fluoromethyl- piperazin-1- yl)-pyrido[3,4-d]- pyrimidin-2-yl]- pyridin-2-yl}-(6- fluoro-pyridin-2- yl)-amine [Example 512]",< 100
7,"c1cc(-c2nc(N3CCNCC3)c3c(C4CC4)cncc3n2)cc(Nc2ccc3c(c2)CCC3)n1 [Example 2124, [4-(5-Cyclopropyl-4-piperazin-1-yl-pyrido[3,4-d]pyrimidin-2-yl)-pyridin-2-yl]-indan-5-yl-amine]",< 100
8,"FC[C@H]1CN(c2nc(-c3ccnc(Nc4ccccc4)c3)nc3cncc(C4CC4)c23)CCN1 [Example 552, {4-[5-Cyclopropyl-4-((R)-3-fluoromethyl-piperazin-1-yl)-pyrido[3,4-d]pyrimidin-2-yl]-pyridin-2-yl}-phenyl-amine]",< 100
9,"FC(F)(F)Oc1ccc(Nc2cc(-c3nc(N4CCNCC4)c4c(C5CC5)cncc4n3)ccn2)cc1 [Example 2162, [4-(5-Cyclopropyl-4-piperazin-1-yl-pyrido[3,4-d]pyrimidin-2-yl)-pyridin-2-yl]-(4-trifluoromethoxy-phenyl)-amine]",< 100
10,"N#CC1CCN(c2nc(-c3ccnc4[nH]c(C(F)(F)F)cc34)nc3cncc(C4CC4)c23)CC1 [Example 1241, 1-[5-Cyclopropyl-2-(2-trifluoromethyl-1H-pyrrolo[2,3-b]pyridin-4-yl)-pyrido[3,4-d]pyrimidin-4-yl]-piperidine-4-carbonitrile]",100 to 1000
11,"c1cc(-c2nc(N3CCNCC3)c3c(C4CC4)cncc3n2)c2cc(C3CCOC3)[nH]c2n1 (stereo not drawn) [Example 2192, 5-Cyclopropyl-4-piperazin-1-yl-2-[2-(tetrahydro-furan-3-yl)-1H-pyrrolo[2,3-b]pyridin-4-yl]-pyrido[3,4-d]pyrimidine]",< 100
12,"Cn1ccc(Nc2cc(-c3nc(N4CCNCC4)c4c(C5CC5)cncc4n3)ccn2)n1 [Example 600, [4-(5-Cyclopropyl-4-piperazin-1-yl-pyrido[3,4-d]pyrimidin-2-yl)-pyridin-2-yl]-(l-methyl-1H-pyrazol-3-yl)-amine]",1000 to 10000
13,"Clc1nccc2c(N3CCN[C@@H](Cc4ccccc4)C3)nc(-c3ccncc3)nc12 [Example 68, (3S)-3-benzyl-1-[8-chloro-2-(pyridin-4-yl)pyrido[3,4-d]-pyrimidin-4-yl]-piperazine]",100 to 1000
14,"CC(=O)Nc1cc(-c2nc(N3CCNC(CC(F)(F)F)C3)c3c(C4CC4)cncc3n2)ccn1 (stereo not drawn) [Example 626, N-(4-{5-Cyclopropyl-4-[3-(2,2,2-trifluoro-ethyl)-piperazin-1-yl]-pyrido[3,4-d]pyrimidin-2-yl}-pyridin-2-yl)-acetamide]",< 100
15,"c1cc(-c2nc(N3CCNCC3)c3c(C4CC4)cncc3n2)cc(N[C@H]2CCOC2)n1 [Example 518, [4-(5-Cyclopropyl-4-piperazin-1-yl-pyrido[3,4-d]pyrimidin-2-yl)-pyridin-2-yl]-(S)-tetrahydro-furan-3-yl-amine]",< 100
16,"c1ccc(Nc2cc(-c3nc(N4CCNCC4)c4c(C5CC5)cncc4n3)ccn2)cc1 [Example 279, [4-(5-Cyclopropyl-4-piperazin-1-yl-pyrido[3,4-d]pyrimidin-2-yl)-pyridin-2-yl]-phenyl-amine]",< 100
17,"CC(C)(C)c1cc2c(-c3nc(N4CCNCC4)c4c(C5CC5)cncc4n3)ccnc2[nH]1 [Example 1231, 2-(2-tert-Butyl-1H-pyrrolo[2,3-b]pyridin-4-yl)-5-cyclopropyl-4-piperazin-1-yl-pyrido[3,4-d]pyrimidine]",< 100
18,"CN(c1nc(-c2ccnc(Nc3nc(F)cc(F)c3F)c2)nc2cncc(C3CC3)c12)C1CCNCC1 [Example 2019, {5-Cyclopropyl-2-[2-(3,4,6-trifluoro-pyridin-2-ylamino)-pyridin-4-yl]-pyrido[3,4-d]pyrimidin-4-yl}-methyl-piperidin-4-yl-amine]",< 100
19,"OC1CCN(c2nc(-c3ccnc(Nc4cccc(N5CCNCC5)c4)c3)nc3cncc(C4CC4)c23)CC1 [Example 729, 1-{5-Cyclopropyl-2-[2-(3-piperazin-1-yl-phenylamino)-pyridin-4-yl]-pyrido[3,4-d]pyrimidin-4-yl}-piperidin-4-ol]",< 100
20,"NCC1CCN(c2nc(-c3ccnc(Nc4c(F)cccc4F)c3)nc3cncc(C4CC4)c23)CC1 [Example 696, {4-[4-(4-Aminomethyl-piperidin-1-yl)-5-cyclopropyl-pyrido[3,4-d]pyrimidin-2-yl]-pyridin-2-yl}-(2,6-difluoro-phenyl)-amine]",< 100
21,"Fc1cccc(Nc2cc(-c3nc(N4CCNCC4)c4c(C5CC5)cncc4n3)ccn2)c1Cl [Example 578, (2-Chloro-3-fluoro-phenyl)-[4-(5-eyclopropyl-4-piperazin-1-yl-pyrido[3,4-d]pyrimidin-2-yl)-pyridin-2-yl]-Amine]",< 100
22,"COc1cncc2nc(-c3ccnc(Nc4ccc(C(N)=O)cn4)c3)nc(N3CCNCC3)c12 [Example 380, 6-[4-(5-Methoxy-4-piperazin-1-yl-pyrido[3,4-d]pyrimidin-2-yl)-pyridin-2-ylamino]-nicotinamide]",< 100
23,"N#Cc1ccccc1Nc1cc(-c2nc(N3CCNCC3)c3c(C4CC4)cncc3n2)ccn1 [Example 519, 2-[4-(5-Cyclopropyl-4-piperazin-1-yl-pyrido[3,4-d]pyrimidin-2-yl)-pyridin-2-ylamino]-benzonitrile]",100 to 1000
24,"Cc1ccccc1-c1nccc2c(NC[C@@H](N)Cc3ccccc3)nc(-c3ccncc3)nc12 [Example 118, N-[(2S)-2-amino-3-phenylpropyl]-8-(2-methyl-phenyl)-2-(pyridin-4-yl)-pyrido[3,4-d]-pyrimidin-4-amine]",1000 to 10000
